Measured values: PubChem BioAssay AID248 (DTP/NCI, 2004)
Several values for one entry are separate records, joined by “and”; a condition that tells them apart may be missing. Equal values may be shown once. Inconclusive results and toxic doses are left out. Cut-off read from the data, not from the text of the source: active = T/C of 150% or more; inactive = T/C below 125%.

System: L1210 leukemia ip in BDF1 mice, survival T/C
Assay: NCI In Vivo Anticancer Drug Screen. Data for tumor model L1210 Leukemia (intraperitoneal) in B6D2F1 (BDF1) mice
Settings: endpoint: mean survival time, higher = longer survival
Protocol: The antitumor activity of compounds was measured in mice bearing transplantable tumors. Survival or tumor size were measured and the results are expressed as the measurement made in the treated group (T) divided by the measurement made in the vehicle treated control group (C). The tumor model used in this assay is L1210 Leukemia (intraperitoneal) in B6D2F1 (BDF1) mice

[1] = dose: 100.0 mg/kg/injection, schedule: Q01DX001 (ip), vehicle: saline with Tween-80
[2] = dose: 50.0 mg/kg/injection, schedule: Q01DX009 (ip), vehicle: saline with Tween-80
[3] = dose: 100.0 mg/kg/injection, schedule: Q01DX009 (ip), vehicle: saline with Tween-80
[4] = dose: 200.0 mg/kg/injection, schedule: Q01DX009 (ip), vehicle: saline with Tween-80
[5] = dose: 400.0 mg/kg/injection, schedule: Q01DX009 (ip), vehicle: saline with Tween-80
[6] = dose: 100.0 mg/kg/injection, schedule: Q04DX003 (ip), vehicle: saline with Tween-80
[7] = dose: 200.0 mg/kg/injection, schedule: Q04DX003 (ip), vehicle: saline with Tween-80
[8] = dose: 400.0 mg/kg/injection, schedule: Q04DX003 (ip), vehicle: saline with Tween-80
[9] = dose: 100.0 mg/kg/injection, schedule: Q01DX009 (ip), vehicle: Klucel (hydroxypropylcellulose) (HPC)
[10] = dose: 100.0 mg/kg/injection, schedule: Q04DX003 (ip), vehicle: Klucel (hydroxypropylcellulose) (HPC)
[11] = dose: 200.0 mg/kg/injection, schedule: Q01DX009 (ip), vehicle: Klucel (hydroxypropylcellulose) (HPC)
[12] = dose: 200.0 mg/kg/injection, schedule: Q04DX003 (ip), vehicle: Klucel (hydroxypropylcellulose) (HPC)
[13] = dose: 400.0 mg/kg/injection, schedule: Q04DX003 (ip), vehicle: Klucel (hydroxypropylcellulose) (HPC)
[14] = dose: 12.5 mg/kg/injection, schedule: Q04DX002 (ip), vehicle: Klucel (hydroxypropylcellulose) (HPC)
[15] = dose: 25.0 mg/kg/injection, schedule: Q04DX002 (ip), vehicle: Klucel (hydroxypropylcellulose) (HPC)
[16] = dose: 400.0 mg/kg/injection, schedule: Q01DX009 (ip), vehicle: Klucel (hydroxypropylcellulose) (HPC)
[17] = dose: 400.0 mg/kg/injection, schedule: Q01DX001 (ip), vehicle: saline

Measured: T/C

C=C(Br)CNC(=O)C1CCCCC1
inactive: dose: 3.0 mg/kg/injection, schedule: Q04DX003 (ip), vehicle: Klucel (hydroxypropylcellulose) (HPC) 95 % of control | dose: 6.0 mg/kg/injection, schedule: Q04DX003 (ip), vehicle: Klucel (hydroxypropylcellulose) (HPC) 107 % of control | dose: 6.25 mg/kg/injection, schedule: Q01DX009 (ip), vehicle: Klucel (hydroxypropylcellulose) (HPC) 102 % of control | dose: 12.0 mg/kg/injection, schedule: Q04DX003 (ip), vehicle: Klucel (hydroxypropylcellulose) (HPC) 93 % of control | dose: 12.5 mg/kg/injection, schedule: Q01DX009 (ip), vehicle: Klucel (hydroxypropylcellulose) (HPC) 102 % of control | dose: 25.0 mg/kg/injection, schedule: Q01DX009 (ip), vehicle: Klucel (hydroxypropylcellulose) (HPC) 100 % of control

O=[N+]([O-])c1cnc(C2=C(O)c3ccccc3CC2)s1
inactive: [1] 97 % of control

O=c1[nH][nH]c(=O)n1-c1ccccc1
inactive: dose: 25.0 mg/kg/injection, schedule: Q01DX009 (ip), vehicle: saline with Tween-80 96 % of control | [2] 94 % of control | [3] 100 % of control | dose: 100.0 mg/kg/injection, schedule: Q04DX002 (ip), vehicle: saline with Tween-80 100 % of control | dose: 177.0 mg/kg/injection, schedule: Q04DX002 (ip), vehicle: saline with Tween-80 95 % of control | [4] 93 % of control | dose: 200.0 mg/kg/injection, schedule: Q04DX002 (ip), vehicle: saline with Tween-80 103 % of control | dose: 266.0 mg/kg/injection, schedule: Q04DX002 (ip), vehicle: saline with Tween-80 98 % of control | [5] 93 % of control | dose: 600.0 mg/kg/injection, schedule: Q04DX002 (ip), vehicle: saline with Tween-80 95 % of control

O=C(O)CCOc1ccc(Cl)cc1
inactive: [6] 106 % of control | [7] 103 % of control | [8] 95 % of control

COC(=O)Nc1cccc2c1C=CC(C#N)N2C(=O)OC (stereo unspecified)
inactive: [9] 93 % of control | [10] 87 % of control | [11] 100 % of control | [12] 91 % of control | [13] 100 % of control

O=C1C=CC(=O)c2[nH]c(-c3ccccc3)cc21
inactive: [14] 93 % of control | [15] 105 % of control

NC(=O)N/N=C1\CCCC(OC(=O)c2ccccc2)CC1 (stereo unspecified)
inactive: [9] 97 % of control | [10] 97 % of control | [11] 97 % of control | [12] 102 % of control | [16] 94 % of control | [13] 96 % of control

O=c1[nH]cncc1F
inactive: dose: 264.0 mg/kg/injection, schedule: Q01DX001 (ip), vehicle: saline 92 % of control | [17] 100 % of control and 112 % of control

Cc1cc(C)c(C(N)=O)c(N)n1
inactive: [10] 105 % of control | [12] 90 % of control | [13] 106 % of control

IC1CCCCC1[n+]1ccccc1 (stereo unspecified)
inactive: dose: 100.0 mg/kg/injection, schedule: Q04DX003 (sc), vehicle: olive oil, sesame oil, peanut oil 105 % of control | dose: 200.0 mg/kg/injection, schedule: Q04DX003 (sc), vehicle: olive oil, sesame oil, peanut oil 103 % of control | dose: 400.0 mg/kg/injection, schedule: Q04DX003 (sc), vehicle: olive oil, sesame oil, peanut oil 101 % of control

NC(CC(=O)NCC(=O)O)C(=O)O (stereo unspecified)
inactive: [14] 105 % of control | [15] 98 % of control | dose: 50.0 mg/kg/injection, schedule: Q04DX002 (ip), vehicle: Klucel (hydroxypropylcellulose) (HPC) 94 % of control

CCc1c(N)nc(N)[nH]c1=O
inactive: dose: 44.0 mg/kg/injection, schedule: Q01DX001 (ip), vehicle: Klucel (hydroxypropylcellulose) (HPC) 102 % of control | dose: 67.0 mg/kg/injection, schedule: Q01DX001 (ip), vehicle: Klucel (hydroxypropylcellulose) (HPC) 96 % of control | dose: 100.0 mg/kg/injection, schedule: Q01DX001 (ip), vehicle: Klucel (hydroxypropylcellulose) (HPC) 98 % of control | dose: 150.0 mg/kg/injection, schedule: Q01DX001 (ip), vehicle: Klucel (hydroxypropylcellulose) (HPC) 96 % of control | dose: 200.0 mg/kg/injection, schedule: Q01DX001 (ip), vehicle: Klucel (hydroxypropylcellulose) (HPC) 104 % of control

CC(=O)Nc1ccc(NC(=O)c2ccc(C(=O)Nc3ccc(NC(C)=O)cc3)cc2)cc1
inactive: dose: 100.0 mg/kg/injection, schedule: Q01DX001 (ip), vehicle: other 98 % of control | dose: 200.0 mg/kg/injection, schedule: Q01DX001 (ip), vehicle: other 93 % of control | dose: 400.0 mg/kg/injection, schedule: Q01DX001 (ip), vehicle: other 96 % of control

O=c1oc2cccc(O)c2c2c1CCCC2
inactive: [9] 95 % of control | [10] 97 % of control | [11] 90 % of control | [12] 95 % of control | [16] 90 % of control | [13] 93 % of control

COc1ccccc1SC(=O)N(C)C
inactive: [3] 102 % of control | [6] 105 % of control | [4] 98 % of control | [7] 96 % of control | [5] 93 % of control | [8] 113 % of control

CC(=O)OC1CCC2(C)C(CCC3C2CCC2(C)C(C(C)CCO)CCC32)C1 (stereo unspecified)
inactive: dose: 100.0 mg/kg/injection, schedule: Q04DX003 (sc), vehicle: steriod suspending solution 95 % of control | dose: 200.0 mg/kg/injection, schedule: Q04DX003 (sc), vehicle: steriod suspending solution 104 % of control | dose: 400.0 mg/kg/injection, schedule: Q04DX003 (sc), vehicle: steriod suspending solution 100 % of control

CCCCc1[nH]ccc2c(C)c3nc4ccccc4c3cc12
inactive: dose: 50.0 mg/kg/injection, schedule: Q01DX001 (ip), vehicle: saline 96 % of control | dose: 100.0 mg/kg/injection, schedule: Q01DX001 (ip), vehicle: saline 97 % of control | dose: 200.0 mg/kg/injection, schedule: Q01DX001 (ip), vehicle: saline 96 % of control | [17] 97 % of control

COc1ccc(OC)c(/C=N/NC(=O)c2ccccc2Cl)c1
inactive: [2] 91 % of control | [3] 97 % of control | [4] 94 % of control

COC(=O)CCC(C)C1CCC2C3CCC4CC(OC(C)=O)CCC4(C)C3CCC12C (stereo unspecified)
inactive: [1] 95 % of control | dose: 200.0 mg/kg/injection, schedule: Q01DX001 (ip), vehicle: saline with Tween-80 95 % of control | dose: 400.0 mg/kg/injection, schedule: Q01DX001 (ip), vehicle: saline with Tween-80 89 % of control

CC(=O)Nc1nc(NC(C)=O)c2nc(CCN(C)c3ccc(C(=O)O)cc3)cnc2n1
inactive: dose: 75.0 mg/kg/injection, schedule: Q01DX001 (ip), vehicle: saline 106 % of control | [10] 95 % of control | dose: 150.0 mg/kg/injection, schedule: Q01DX001 (ip), vehicle: saline 101 % of control | [12] 95 % of control | dose: 300.0 mg/kg/injection, schedule: Q01DX001 (ip), vehicle: saline 101 % of control | [13] 100 % of control

O=C(CBr)c1ccncc1
inactive: dose: 5.0 mg/kg/injection, schedule: Q01DX001 (ip), vehicle: saline 103 % of control | dose: 10.0 mg/kg/injection, schedule: Q01DX001 (ip), vehicle: saline 103 % of control | dose: 20.0 mg/kg/injection, schedule: Q01DX001 (ip), vehicle: saline 94 % of control
